In patent publication US20130231334A1, “METHODS OF CONTROLLING NEONICOTINOID RESISTANT APHIDS” (SYNGENTA CROP PROTECTION LLC, priority 2010, published 2013):

system: neonicotinoid insecticide resistant aphid strain; experiment: Leaf disc spray bioassay on chinese cabbage, aphid mortality (Example 1), resistant strain; type: in vivo; conditions: resistant aphid strain from peach orchard, Avignon region, mixed age aphids, mortality 72 hours after treatment
Method: (§1) 5 cm leaf discs were taken from fully expanded chinese cabbage leaves and placed with the underside facing upwards onto water agar in 5 cm Petri dishes. The leaf discs are infested with between 30 and 40 mixed age aphids 24 hours prior to insecticide treatment. The leaf surface is sprayed with the appropriate test solutions in a Burkhard Potter Tower at an approximate water volume of […]. Test containers are stored at 21° C., 60% RH and 16:8 light/dark. Aphids were assessed for mortality 72 hours after treatment.

Compound	LC50 with 95% confidence limit, resistant strain
CCN(Cc1ccc(Cl)nc1)/C(=C/[N+](=O)[O-])NC [nitenpyram]	237 (93.7-3566) ppm
C/C(=N\C#N)N(C)Cc1ccc(Cl)nc1 [acetamiprid]	49.3 (35.2-72.0) ppm
CN1COCN(Cc2cnc(Cl)s2)/C1=N/[N+](=O)[O-] [thiamethoxam]	148 (128-172) ppm
CN/C(=N\[N+](=O)[O-])NCc1cnc(Cl)s1 [clothianidin]	904 (478-3616) ppm
N#C/N=C1\SCCN1Cc1ccc(Cl)nc1 [thiacloprid]	>1000 ppm
CN/C(=N/CC1CCOC1)N[N+](=O)[O-] (stereo not drawn) [dinotefuran]	538 (435-696) ppm
N#CCNC(=O)c1cnccc1C(F)(F)F [flonicamid]	2.74 (0.53-6.81) ppm

system: neonicotinoid insecticide susceptible strain 4106A; experiment: Leaf disc spray bioassay on chinese cabbage, aphid mortality (Example 1), susceptible strain; type: in vivo; conditions: susceptible strain 4106A (Rothamsted Research), mixed age aphids, mortality 72 hours after treatment
Method: as §1

Compound	LC50 with 95% confidence limit, susceptible strain
CCN(Cc1ccc(Cl)nc1)/C(=C/[N+](=O)[O-])NC [nitenpyram]	1.26 (1.03-1.61) ppm
C/C(=N\C#N)N(C)Cc1ccc(Cl)nc1 [acetamiprid]	0.55 (0.51-0.59) ppm
CN1COCN(Cc2cnc(Cl)s2)/C1=N/[N+](=O)[O-] [thiamethoxam]	0.35 (0.3-0.41) ppm
CN/C(=N\[N+](=O)[O-])NCc1cnc(Cl)s1 [clothianidin]	0.33 (0.28-0.38) ppm
N#C/N=C1\SCCN1Cc1ccc(Cl)nc1 [thiacloprid]	0.38 (0.34-0.42) ppm
CN/C(=N/CC1CCOC1)N[N+](=O)[O-] (stereo not drawn) [dinotefuran]	9.95 (8.21-12.5) ppm
N#CCNC(=O)c1cnccc1C(F)(F)F [flonicamid]	1.65 (1.3-2.09) ppm

system: susceptible or neonicotinoid-resistant Myzus persicae population; experiment: Pea seedling spray test, mortality of susceptible and neonicotinoid-resistant populations (Example 2); type: in vivo; conditions: ratio of rates for 80% mortality, resistant versus susceptible Myzus persicae; BP80 = lowest known rate providing 80% or more mortality; 6 days after treatment; pea seedlings
Method: Pea seedlings, infested with a susceptible or neonicotinoid-resistant Myzus persicae population of mixed ages, respectively, are treated with the test solutions (200, 50, 12.5, 3, 0.8, 0.2, 0.05 ppm a.i.) in a turn table spray chamber. 6 days after treatment, samples are checked for mortality.
The results of the resistance factor at BP80 (lowest known rate providing 80% or more mortality) are indicated below.

Compound	resistance factor at BP80
CO/N=C(\C)CNC(=O)c1cnccc1C(F)(F)F	4
O=C(NCc1ccc(Cl)cc1)c1cnccc1C(F)(F)F [158063-19-5]	>16
CC(C)N1CN=C(c2cnccc2C(F)(F)F)OC1=O [1098412-17-9]	1
Cc1noc(-c2cnccc2C(F)(F)F)n1 [276684-49-2]	<1
O=C(NCN1CCCC1)c1cnccc1C(F)(F)F [158063-50-4]	1
CN1COCN(Cc2cnc(Cl)s2)/C1=N/[N+](=O)[O-] [thiamethoxam]	>250
CN(O)C(=O)c1cnccc1C(F)(F)F [323180-93-4]	Not adequate control for 80% mortality on sensitive & resistance strains
CN(C)C(=O)c1cnccc1C(F)(F)F [158063-01-5]	1.7
NC(=O)c1cnccc1C(F)(F)F [158062-71-6]	4
O=C(c1cnccc1C(F)(F)F)N(O)Cc1ccccc1 [323181-02-8]	>1
CNC(=O)c1cnccc1C(F)(F)F [158062-76-1]	1
O=C(N=S(c1ccccc1)c1ccccc1)c1cnccc1C(F)(F)F [362724-14-9]	4
O=C(NCc1ccccn1)c1cnccc1C(F)(F)F [164149-37-5]	4
